Three molecules from patent publication US7501410B2, “Methods of inhibiting BTK and SYK protein kinases” (Roche Palo Alto LLC, priority 2006, dated 2009) can be followed below.

Several values for one entry are separate records, joined by “and”; a condition that tells them apart may be missing. Equal values may be shown once.

The target in this test is T1, Spleen Tyrosine Kinase (SYK) aa 360-635 (Homo sapiens, UniProt P43405).
T1 construct: truncated construct of Spleen Tyrosine Kinase aa 360-635; made in house
Nature of the test: Determination of IC50 of Spleen Tyrosine Kinase (SYK) inhibition, 33P kinase assay. The note with it: recombinant human SYK360-635, 20 μM ATP; read-out: IC50 (μM) SYK Assay. In kind it is biochemical.
What is called IC50 is the concentration at which inhibition is half-maximal. For `Cc1cc(Nc2nn(C(C)C)c(=O)c3cc(N4CCOCC4)ccc23)n[nH]1` [Example F-1, 2-Isopropyl-4-(5-methyl-1H-pyrazol-3-ylamino)-7-morpholino-2H-phthalazin-1-one], the IC50 is 0.565 µM and 2.31 µM and 0.526 µM.

Take `Cc1cc(Nc2nn(C(C)C)c(=O)c3cc(N4CCN(C)CC4)ccc23)[nH]n1` [Example F-5, 2-Isopropyl-7-(4-methyl-piperazin-1-yl)-4-(5-methyl-2H-pyrazol-3-ylamino)-2H-phthalazin-1-one]: the IC50 is 0.37 µM and 0.7 µM and 0.536 µM. For `Cc1cc(Nc2nn(C(C)C)c(=O)c3cc(OCCN(C)C)ccc23)n[nH]1` [Example ZD-5, 7-(2-Dimethylamino-ethoxy)-2-isopropyl-4-(5-methyl-1H-pyrazol-3-ylamino)-2H-phthalazin-1-one] the value was 1.86 µM.
